# Data as given in patent US9895331B2, “Prophylactic and/or therapeutic agent for radiation damage” (The University of Tokyo, priority 2012, dated 2018).
# How the values were obtained:
# Assay type in all cases: in vivo, C57BL/6 mice
# [1] = test system: mouse suffering from radiation damage; test: Assessment test for hematopoiesis-promoting effect (body weight, blood cell count by flow cytometer; 4.0 Gy); conditions: 5-ALA hydrochloride 100 mg/kg
# Source text: (§1) Male 8-week-old C57BL/6 mice were purchased from Japan SLC, Inc. and mice that appeared healthy by visual inspection on the day of arrival were subjected to the test. On the day after arrival, based on the body weight, the mice were divided into three groups of eight mice per group by random sampling, and further, one group was divided into four mice per cage. Also, as an untreated group, one group of four mice was kept in one cage. The mice were allowed to feed on the basic feed MF manufactured by Oriental Yeast Co., Ltd. and tap water ad libitum and reared in a rearing room at a room temperature of 23 to 24° C., a humidity of 30 to 40%, and under 12 hours of fluorescent lamp lighting.
# The mice were divided into four groups, including three groups a) to c), each receiving a different drug, and an untreated group, as shown below.
# Group a); Non-5-ALA administration group
# Group b); 5-ALA hydrochloride 100 mg/kg body weight administration group
# Group c); 5-ALA hydrochloride 100 mg+SFC 157 mg/kg body weight administration group
# Using Pantac HF350 (200 KV, 20 mA Filter: Cu 0.1 mm+Al 0.5 mm), the mice were collectively irradiated with a radiation dose of 4.0 Gy on day 0.
# From two days before initiation of irradiation (day −2) to day 6, water was forcedly administered to the aforementioned group a), an aqueous solution of 5-ALA hydrochloride was forcedly administered to the aforementioned group b), and an aqueous solution of 5-ALA hydrochloride and SFC was forcedly administered to the aforementioned group c) every day in the stomach through a feeding tube.
# Setting the day of irradiation at day 0, the body weight was measured two days before initiation of irradiation (day −2), and on day 0, day 3, and day 6.
# The group of cells obtained from the bone marrow, spleen, and thymus were analyzed by a flow cytometer. As an index for identifying each cell, the markers shown in the above [Table 2] were each used.
# (§2) The results of analyzing the group of cells obtained from the bone marrow, spleen, and thymus by a flow cytometer are shown in FIG. 6. The number of bone marrow cells was counted as a sum of B cells, T cells, polymorphonuclear leukocytes (neutrophils), monocytes, and Ery I to IV. The number of thymocytes was counted as a sum of the number of CD4SP, CD8SP, DN, and DP. The number of spleen cells was counted as a sum of B cells, T cells, polymorphonuclear leukocytes (neutrophils), monocytes, and Ery I to IV.
# [2] = test system: mouse suffering from radiation damage; test: Test for studying the establishment of an assessment model (body weight, blood cell count by flow cytometer; 3.5, 4.0, 4.5 Gy)
# Source text: as §1, with “into 10” for “into three”, “of four” for “of eight”, “and each” for “and further, one”, “group” for “group was divided into four mice per cage. Also, as an untreated group, one group of four mice”
# The mice were divided into 10 groups, including nine groups of 1) to 9), each receiving a different drug and exposed to a different radiation dose, and an untreated group, as shown below.
# Groups 1) to 3); Three non-5-ALA administration groups, each irradiated with 3.5 Gy, 4.0 Gy, or 4.5 Gy
# Groups 4) to 6); Three 5-ALA hydrochloride 100 mg/kg body weight administration groups, each irradiated with 3.5 Gy, 4.0 Gy, or 4.5 Gy
# Groups 7) to 9); Three 5-ALA hydrochloride 100 mg+SFC 157 mg/kg body weight administration groups, each irradiated with 3.5 Gy, 4.0 Gy, or 4.5 Gy […]
# Setting the day of irradiation at day 0, the body weight was measured two days before initiation of irradiation (day −2), and on day 0, day 3, day 5, and day 7.
# The group of cells obtained from the bone marrow, spleen, and thymus were analyzed by a flow cytometer. […]
# as §2, with “4.” for “6.”
# [3] = test system: mouse suffering from radiation damage; test: Radiation damage-alleviating effect of 5-ALA in irradiated mice (survival rate, body weight, appearance); conditions: for body weight vs non-ALA administration group / body weight, p vs non-ALA administration group: eleven days after irradiation; for body weight vs non-ALA administration group / body weight, p vs non-ALA administration group / changes in appearance: total 8 Gy
# Source text: Male 8-week-old C57BL/6 mice were purchased from Japan SLC, Inc. and mice that appeared healthy by visual inspection on the day of arrival were subjected to the test. On the day after arrival, based on the body weight, the mice were divided into three groups of 10 mice per group by random sampling, and further, one group was divided into three, three, and four mice per cage. The mice were allowed to feed on the basic feed MF manufactured by Oriental Yeast Co., Ltd. and tap water ad libitum and reared in a rearing room at a room temperature of 23 to 24° C., a humidity of 30 to 40%, and under 12 hours of fluorescent lamp lighting.
# The mice were divided into three groups of [1] to [3], each receiving a different drug, as shown below. Group; Non-5-ALA administration group (10 mice) Group; 5-ALA hydrochloride 10 mg/kg body weight administration group (10 mice) Group; 5-ALA hydrochloride 100 mg/kg body weight administration group (10 mice)
# Using Pantac HF350 (200 KV, 20 mA Filter: Cu 0.1 mm+Al 0.5 mm), the mice were irradiated with 4 Gy of radiation twice at a 3-hour interval (a total of 8 Gy).
# After initiation of irradiation, water was forcedly administered to the aforementioned group, and an aqueous solution of 5-ALA hydrochloride was forcedly administered to the aforementioned groups and [3] every day in the stomach through a feeding tube.
# Setting the day of irradiation at day 0, survival up to day 21 was checked. A mouse that survived for 21 days was judged as alive. […] Also, when the death was confirmed in the morning hours, the death was judged to have occurred on the previous day.
# At the time of confirmation of survival in (5) above, body weight was simultaneously measured.
# During the measurement in (5) above, it was examined whether there was any change in appearance between the administration group and non-administration group.
compound,measurement,setting,value
"NCC(=O)CCC(=O)O [ALA, 5-aminolevulinic acid]",number of B cells among the bone marrow cells,[1]; bone marrow,tendency of improvement
same,number of bone marrow TER119+ erythroid progenitor cells,[1]; bone marrow,tendency of improvement
same,number of monocytes among the bone marrow cells,[1]; bone marrow,tendency of improvement
same,number of B cells among the spleen cells,[1]; spleen,statistically significant improvement
same,number of CD11b+ cells among the spleen cells,[1]; spleen,tendency of improvement
same,number of polymorphonuclear leukocytes among the spleen cells,[1]; spleen,tendency of improvement
same,number of the erythroid progenitor cell Ery IV among the spleen cells,[1]; spleen,improved with statistical significance
same,spleen cell count,"[1]; without or with SFC 157 mg/kg, day -2 to day 6, vs H2O control group",significant improvement
same,number of T cells among the spleen cells,"[1]; without or with SFC 157 mg/kg, spleen",tendency of improvement
same,"other items of blood cell count (bone marrow, thymus, spleen; other doses and groups)","[2]; 3.5 to 4.5 Gy, vs H2O control group",no significant difference
same,"cell count in each organ (bone marrow, spleen, thymus)","[2]; 4.0 Gy, 5-ALA hydrochloride 100 mg/kg",stable improvement tendency
same,spleen cell count,"[2]; 4.0 Gy, 5-ALA hydrochloride 100 mg/kg, day -2 to day 6, vs H2O control group",significant improvement
same,"survival rate, p (Logrank method) vs non-ALA administration group","[3]; 10 mg/kg, 4 Gy twice (total 8 Gy), up to day 21",0.161
same,body weight vs non-ALA administration group,[3]; 10 mg/kg,significant difference
same,"body weight, p vs non-ALA administration group",[3]; 10 mg/kg,0.03556
same,changes in appearance,"[3]; 10 mg/kg, vs non-ALA group",milder piloerection
same,survival rate,"[3]; 100 mg/kg daily intragastric after irradiation, 4 Gy twice (total 8 Gy), up to day 21, vs non-ALA group",significantly improved
same,"survival rate, p (Logrank method) vs non-ALA administration group","[3]; 100 mg/kg, 4 Gy twice (total 8 Gy), up to day 21",0.0289
same,body weight vs non-ALA administration group,[3]; 100 mg/kg,significant difference
same,"body weight, p vs non-ALA administration group",[3]; 100 mg/kg,0.03456
same,changes in appearance,"[3]; 100 mg/kg, vs non-ALA group",milder piloerection
